Here are results for 9 compounds from PMC3606911 (Journal of enzyme inhibition and medicinal chemistry, 2012).

One series has as its system COX isoform. The conditions noted are these: cited from earlier work.
Series [1] relates to FAAH. Particulars: cited from earlier work.
The test system of series [2] is acetic acid-induced abdominal stretching. Particulars: rats, 20 mg/kg i.p., cited from earlier work.
For series [3] the test system is unchanged. The conditions noted are these: mice, 10 and 30 mg/kg s.c.; cited from earlier work.
The target in the next series is T1, human recombinant COX-2 (Homo sapiens, UniProt P35354).
T1 sequence (P35354 18-604): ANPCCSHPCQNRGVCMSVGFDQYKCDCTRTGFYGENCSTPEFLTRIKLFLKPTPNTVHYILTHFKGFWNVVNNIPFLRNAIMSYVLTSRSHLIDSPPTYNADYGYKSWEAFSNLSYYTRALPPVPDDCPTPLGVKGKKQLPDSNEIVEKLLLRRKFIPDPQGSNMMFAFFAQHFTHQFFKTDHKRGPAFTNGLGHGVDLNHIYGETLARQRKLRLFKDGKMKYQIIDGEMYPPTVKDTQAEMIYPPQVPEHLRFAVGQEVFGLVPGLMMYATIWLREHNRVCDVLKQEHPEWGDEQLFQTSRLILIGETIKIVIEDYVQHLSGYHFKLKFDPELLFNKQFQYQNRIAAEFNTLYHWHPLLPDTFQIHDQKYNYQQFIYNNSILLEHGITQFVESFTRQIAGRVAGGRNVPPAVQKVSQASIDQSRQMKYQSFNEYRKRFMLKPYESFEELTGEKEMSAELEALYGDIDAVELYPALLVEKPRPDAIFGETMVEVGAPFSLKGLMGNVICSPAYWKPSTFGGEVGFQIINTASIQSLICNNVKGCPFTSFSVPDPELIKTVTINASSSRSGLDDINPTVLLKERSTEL
Description: COX oxygen electrode assay, COX-2. In kind it is biochemical. The conditions noted are these: for Initial activity (% of vehicle control) COX-2 (AEA) / Initial activity (% of vehicle control) COX-2 (AA): vehicle EtOH; for Initial activity (% of vehicle control) COX-2 (AEA): substrate AEA 10 μM; for Initial activity (% of vehicle control) COX-2 (AA): substrate AA 10 μM.

The target in series [4] is T2, FAAH (Rattus norvegicus, UniProt P97612).
T2 sequence (P97612 1-579): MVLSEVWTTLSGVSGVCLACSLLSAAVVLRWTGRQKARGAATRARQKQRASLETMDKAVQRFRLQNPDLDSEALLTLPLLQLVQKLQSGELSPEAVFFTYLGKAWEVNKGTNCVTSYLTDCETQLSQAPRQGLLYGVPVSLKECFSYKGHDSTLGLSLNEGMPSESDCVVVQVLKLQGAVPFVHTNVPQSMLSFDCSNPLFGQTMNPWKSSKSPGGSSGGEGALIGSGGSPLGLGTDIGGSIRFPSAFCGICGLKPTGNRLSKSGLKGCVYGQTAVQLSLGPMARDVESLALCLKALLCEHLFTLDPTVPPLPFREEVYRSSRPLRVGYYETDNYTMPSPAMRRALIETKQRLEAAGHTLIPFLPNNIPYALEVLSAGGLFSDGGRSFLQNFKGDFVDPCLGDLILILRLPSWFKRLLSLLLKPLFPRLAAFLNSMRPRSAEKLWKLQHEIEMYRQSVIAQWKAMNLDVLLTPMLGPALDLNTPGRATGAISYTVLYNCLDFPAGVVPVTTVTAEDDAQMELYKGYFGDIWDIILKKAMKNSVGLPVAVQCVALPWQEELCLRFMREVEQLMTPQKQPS
Description: FAAH assay: hydrolysis of [3H]AEA by rat brain homogenates. Format: biochemical.

The conditions of series [5]: cited from earlier work.
The test system of series [6] is acetic acid-induced abdominal stretching (visceral nociception). The series is described as follows: Acetic acid-induced abdominal stretching test. Format: in vivo. The conditions noted are these: mice, 30 mg/kg s.c., 30 min before acetic acid.
The next series concerns the target T3, ovine COX-1 (Ovis aries, UniProt P05979).
T3 sequence (P05979 25-600): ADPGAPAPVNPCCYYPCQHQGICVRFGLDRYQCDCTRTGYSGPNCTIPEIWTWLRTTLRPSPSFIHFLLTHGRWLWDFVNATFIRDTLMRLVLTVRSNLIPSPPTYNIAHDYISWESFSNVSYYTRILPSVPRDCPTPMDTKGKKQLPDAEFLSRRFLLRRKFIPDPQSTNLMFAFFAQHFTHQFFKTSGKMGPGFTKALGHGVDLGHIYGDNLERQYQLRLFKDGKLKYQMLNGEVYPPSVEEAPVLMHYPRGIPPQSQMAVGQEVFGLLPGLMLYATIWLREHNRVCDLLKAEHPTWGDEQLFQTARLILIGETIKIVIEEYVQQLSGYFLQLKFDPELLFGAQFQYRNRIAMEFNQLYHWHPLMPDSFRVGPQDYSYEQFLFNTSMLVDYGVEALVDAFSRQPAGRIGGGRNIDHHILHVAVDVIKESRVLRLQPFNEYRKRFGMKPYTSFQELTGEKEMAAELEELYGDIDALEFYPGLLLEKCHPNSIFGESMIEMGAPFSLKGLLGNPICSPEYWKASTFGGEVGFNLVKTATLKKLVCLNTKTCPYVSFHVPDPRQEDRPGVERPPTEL
Description: COX oxygen electrode assay, COX-1. Format: biochemical. Particulars: for Initial activity (% of vehicle control) COX-1 (AEA): substrate 10 μM.

The mark [7] stands for this setting: read-out: inhibition of the cyclooxygenation of AA by COX-2.

Structures are written as SMILES. Entries after “also recorded” stand apart in the source; their conditions may differ. Like-named read-outs stand apart in the source and are kept apart here.

By IC50 is commonly meant the concentration at which inhibition is half-maximal. In the case of `CC(=O)Nc1ccc(OC(=O)C(C)c2ccc(Nc3ccnc(C(F)(F)F)c3)cc2)cc1` (centres unmarked) [4-acetamidophenyl 2-(4-(2-(trifluoromethyl)pyridin-4-ylamino)phenyl)propanoate, reference compound], the “inhibition of COX isoforms” value in the series with COX isoform is on record as “did not inhibit either COX isoform”. In the series with FAAH [1] (read-out: IC50 FAAH), the IC50 was 0.1 µM.

Take `CC(C)Cc1ccc(C(C)C(=O)O)cc1` (centres unmarked) [Compound 1, Ibuprofen, reference compound]: the “activity in the acetic acid-induced abdominal stretching test” value in [2] is reported as “significantly less effective than 20 mg/kg of 2”.

As a reminder, the inhibition is the share of the control response that was lost under treatment. Turning to `Cc1cccnc1NC(=O)C(C)c1ccc(CC(C)C)cc1` (centres unmarked) [Compound 2, N-(3-methylpyridin-2-yl)-2-(4′-isobutylphenyl)propionamide], the “activity in the acetic acid-induced abdominal stretching test” value in series [3] was “has analgesic activity; also recorded: greater than for a dose of 10 mg/kg s.c. and for 30 mg/kg of diclofenac”; in series [2] (20 mg/kg) it was “has analgesic activity; also recorded: significantly greater reduction in stretching than the same dose of 1”. Besides, the half-inhibitory concentration (IC50) on human recombinant COX-2 is around 19 µM; on ovine COX-1 (IC50 COX-1 (approximate), AA 10 μM as substrate, DMSO as vehicle), around 240 µM; at ovine COX-1 (IC50 COX-1 (approximate), AA 10 μM as substrate, ethanol as vehicle), around 60 µM. The inhibition at 300 µM at human recombinant COX-2 (setting [7]) was found to be 41%. The “Initial activity (% of vehicle control) COX-2 (AEA)” value is given as 111±15 (6) % of vehicle control on human recombinant COX-2 (compound 3 μM), 77±10 (3) % of vehicle control at human recombinant COX-2 (compound 10 μM), 51±17 (3) % of vehicle control on human recombinant COX-2 (compound 20 μM) and 0.7±9 (4) % of vehicle control on human recombinant COX-2 (compound 50 μM). The “Initial activity (% of vehicle control) COX-2 (AA)” value at human recombinant COX-2 (compound 100 μM) was 88±8 (3) % of vehicle control; on human recombinant COX-2 (compound 300 μM), 59±4 (4) % of vehicle control. Moreover, the “fold more potent than 1 as an FAAH inhibitor” value at FAAH [4] is reported as “approximately 250 fold”. Besides, on FAAH [4] (higher number = increased FAAH inhibitory potency relative to COX-1 potency), the “FAAH/COX-1 potency ratio, ratio for 1 set to unity” value is ~ 500. Moreover, the Max inhibition % at FAAH [4] (solvent DMSO) and on FAAH [4] (solvent EtOH) was 100% each time. For the same compound, the acute ulcerogenesis entry in series [5] was “much lower than seen with 1”. In addition, the “number of abdominal stretches elicited by acetic acid” value in series [6] is recorded as “active in vivo; also recorded: decreased the number of abdominal stretches”. Besides, the “COX isoform selectivity with AA as substrate” value on ovine COX-1 (AA as substrate, COX-1 vs COX-2) was “COX-1 selective”. The “Initial activity (% of vehicle control) COX-1 (AEA)” value on ovine COX-1 (vehicle DMSO, compound 20 μM) is reported as 106±15 (3) % of vehicle control; at ovine COX-1 (vehicle DMSO, compound 50 μM), 82±4 (6) % of vehicle control; on ovine COX-1 (vehicle DMSO, compound 100 μM) it was 63±6 (6) % of vehicle control; on ovine COX-1 (vehicle DMSO, compound 200 μM), 59±8 (6) % of vehicle control; at ovine COX-1 (vehicle DMSO, compound 400 μM), 36±0.9 (3) % of vehicle control; at ovine COX-1 (vehicle EtOH, compound 20 μM) it was 70±6 (3) % of vehicle control. The “Initial activity (% of vehicle control) COX-1 (AEA)” value is on record as 57±0.6 (3) % of vehicle control on ovine COX-1 (vehicle EtOH, compound 50 μM); 45±8 (3) % of vehicle control on ovine COX-1 (vehicle EtOH, compound 100 μM); 14±4 (3) % of vehicle control on ovine COX-1 (vehicle EtOH, compound 200 μM). The “mode of inhibition of FAAH” value in the series on FAAH [1] is reported as “acts non-competitively”. The “orders of magnitude more potent as an inhibitor of FAAH than ibuprofen” value in the series on FAAH [1] is listed as 2–3 orders of magnitude.

In turn, `Cc1cccnc1OC(=O)C(C)c1ccc(CC(C)C)cc1` (centres unmarked) [Compound 3, 3-methylpyridin-2-yl 2-(4-isobutylphenyl)propanoate] returned a Max inhibition % on FAAH [4] (solvent EtOH) of 100%.

On to `Cc1cccnc1NC(=O)CNC(=O)C(C)c1ccc(CC(C)C)cc1` (centres unmarked) [Compound 9, 2-(4-Isobutylphenyl)-N-(2-(3-methylpyridin-2-ylamino)-2-oxoethyl)propanamide], for which the IC50 at human recombinant COX-2 was around 10 µM; against ovine COX-1, around 50 µM. In addition, the inhibition at 100 µM on human recombinant COX-2 (setting [7]) came to 18%. Besides, the “Initial activity (% of vehicle control) COX-2 (AEA)” value is given as 83±8 (3) % of vehicle control on human recombinant COX-2 (compound 3 μM) and −11±4 (3) % of vehicle control at human recombinant COX-2 (compound 50 μM). At human recombinant COX-2 (compound 100 μM), the “Initial activity (% of vehicle control) COX-2 (AA)” value was 82±5 (4) % of vehicle control. The “Initial activity (% of vehicle control) COX-1 (AEA)” value on ovine COX-1 (vehicle EtOH, compound 20 μM) was 76±8 (3) % of vehicle control; on ovine COX-1 (vehicle EtOH, compound 50 μM), 56±4 (3) % of vehicle control; at ovine COX-1 (vehicle EtOH, compound 100 μM), 23±4 (3) % of vehicle control.

On FAAH [4] (solvent EtOH), `Cc1cccc(NC(=O)CNC(=O)C(C)c2ccc(CC(C)C)cc2)n1` (centres unmarked) [Compound 10, 2-(4-Isobutylphenyl)-N-(2-(6-methylpyridin-2-ylamino)-2-oxoethyl)propanamide] registered a Max inhibition % of 100%.

Regarding `Cc1cccnc1NC(=O)CCNC(=O)C(C)c1ccc(CC(C)C)cc1` (centres unmarked) [Compound 11, 2-(4-Isobutylphenyl)-N-(3-(3-methylpyridin-2-ylamino)-3-oxopropyl)propanamide], the Max inhibition % on FAAH [4] (solvent DMSO) is listed as 90±3%.

`CC(C)Cc1ccc(C(C)C(=O)NCC(=O)NCc2ccccn2)cc1` (centres unmarked) [Compound 12, 2-(4-Isobutylphenyl)-N-(2-oxo-2-(pyridin-2-ylmethylamino)ethyl)propanamide] had a Max inhibition % on FAAH [4] (solvent DMSO) of 100%.

At FAAH [4] (solvent DMSO), `CC(C)Cc1ccc(C(C)C(=O)NCC(=O)NCc2cccnc2)cc1` (centres unmarked) [Compound 13, 2-(4-Isobutylphenyl)-N-(2-oxo-2-(pyridin-3-ylmethylamino)ethyl)propanamide] displayed a Max inhibition % of 81±8%.
